Tested on: BV-2
Experiment: Antiinflammatory activity in mouse BV2 cells assessed as inhibition of LPS-stimulated nitric oxide production by Griess reagent based spectrophotometric analysis
Format: functional, cell-based

Row | Structure (SMILES) | IC50 [µM]
1 | CC1=CC[C@@H]([C@](C)(O)[C@H]2CC[C@@]3(C)[C@@H]4C[C@@H](O)[C@H]5C(C)(C)OC(=O)C=C[C@@]56C[C@@]46CC[C@]23C)OC1=O | > 100
2 | CC(=O)O[C@H]([C@@H]1C=C(C)C(=O)O1)[C@@H](C)C1[C@@H]2[C@@]3(O)O[C@@]4(CC[C@]12C)C(O)[C@]12OC(=O)C[C@H]1OC(C)(C)[C@@H]2CC[C@H]4C3=O (stereo partly drawn) | 11.9
3 | C/C=C(/C)C(=O)O[C@@H]1C[C@H]2C(C)(C)O[C@@H]3CC(=O)O[C@@]32C[C@@]2(O)C[C@H](O)[C@]34O[C@@]5(C=C(C)C(=O)O5)C[C@@H](C)[C@H]3C[C@@H]3O[C@@]34[C@H]12 | > 100
4 | CC1=C(CC[C@@H](C)O)C(C)(C)C[C@H](O)C1 | > 100
5 | CC(=O)O[C@H]([C@@H]1CC(C)C(=O)O1)[C@@H](C)C1[C@@H]2[C@@]3(O)O[C@@]4(CC[C@]12C)C(O)[C@]12OC(=O)C[C@H]1OC(C)(C)[C@@H]2CC[C@H]4C3=O (stereo partly drawn) | 10.1
6 | O=c1c(O)c(-c2ccc(O)c(O)c2)oc2cc(O)cc(O)c12 [QUERCETIN] | 16.3

Further lines, results first:

Row | IC50 [µM] | Structure (SMILES)
7 | > 100 | CC(=O)O[C@H]1CC(C)=C2C(=O)C=C(C)[C@@H]2[C@H]2OC(=O)[C@@H](C)[C@@H]21
8 | 98.5 | CC#Cc1cc(O)c(C(C)=O)s1
9 | 27.9 | C/C1=C\C[C@H](O)/C(C)=C/[C@H]2OC(=O)[C@H](C)[C@@H]2CC1
10 | 6.5 | CC(=O)O[C@H]1C[C@]2(C)O[C@@]23C(=O)C=C(C)C3[C@H]2OC(=O)[C@H](C)[C@H]12 (stereo partly drawn)
11 | > 100 | C=C1CC[C@@H](C(C)C)/C=C/C(=O)CC[C@H]1O
12 | 79.5 | CC#Cc1ccc(C(=O)O)s1
13 | > 100 | CC1=CC(=O)[C@]23O[C@@]2(C)C[C@H](O)[C@@H]2[C@H](OC(=O)[C@@H]2C)[C@@H]13
